15 compounds from PubChem BioAssay AID624129 (Sanford-Burnham Center for Chemical Genomics, 2012) can be followed below.

The target in this experiment is C-X-C chemokine receptor type 6 (Homo sapiens) (UniProt O00574). The experiment can be described thus: CXCR6 receptor antagonists, dose response, cell-based, beta-arrestin, DiscoveRx, APJ panel, uHTS hits (AID 624129). The settings on record: CXCR6 beta-arrestin (DiscoveRx) antagonist cell assay; for outcome: CXCR6, dose range 1; for inhibition: CXCR6, run 2, dose range 1, at 79 µM (top of the series).
Sequence of C-X-C chemokine receptor type 6 (Homo sapiens) (O00574 whole entry, looked up): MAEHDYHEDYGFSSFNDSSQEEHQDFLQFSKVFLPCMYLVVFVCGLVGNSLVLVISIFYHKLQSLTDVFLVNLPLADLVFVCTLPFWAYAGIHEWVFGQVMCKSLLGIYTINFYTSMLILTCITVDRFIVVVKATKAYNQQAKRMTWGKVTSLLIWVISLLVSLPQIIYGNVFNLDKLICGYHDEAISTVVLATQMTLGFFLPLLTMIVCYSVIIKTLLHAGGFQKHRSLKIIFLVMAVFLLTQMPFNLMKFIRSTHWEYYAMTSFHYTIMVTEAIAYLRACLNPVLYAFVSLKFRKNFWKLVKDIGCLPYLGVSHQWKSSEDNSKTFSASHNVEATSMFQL

The mark [1] stands for this setting: CXCR6, dose range 1, mean IC50 across replicates.

pIC50: −log10 of the molar value. Calls of active or inactive are those of the source. How the calls were made is not given here.

A word on the pIC50: it is −log10 of the IC50, conventionally taken in molar units. The low end stands for a high IC50, the high end for a low IC50. For orientation: inhibition means the drop in the measured response relative to a control, in per cent.

`Cn1cnc([N+](=O)[O-])c1S(=O)(=O)c1cccc(Cl)c1`: the outcome was inactive and the inhibition was 112%. For the same compound, the pIC50 under setting [1] is 4.92. Moreover, the pIC50 (CXCR6, run 1, dose range 2) is 4.91. The compound further had a pIC50 (CXCR6, run 2, dose range 2) of 4.93.

Turning to `COc1ccc(C(=O)N/N=C/c2cccc3cccnc23)cc1`, the result was inactive and the inhibition turned out to be 60.1%. This compound had a pIC50 under setting [1] of 4.87. The compound also gave a pIC50 (CXCR6, run 1, dose range 2) of 4.90. This compound showed a pIC50 (CXCR6, run 2, dose range 2) of 4.84.

On to `O=C(NC(=S)N1CCN(c2ccc(C(F)(F)F)cc2[N+](=O)[O-])CC1)c1cccs1`, for which the result was inactive and the inhibition was 85.8%. The compound further had a pIC50 under setting [1] of 4.89. For the same compound, the pIC50 (CXCR6, run 1, dose range 2) was 4.98. The pIC50 (CXCR6, run 2, dose range 2) is 4.81.

With `COc1ccc(/C=C2/CCC(CN3CCOCC3)C2=O)cc1` (stereo not given), the outcome was inactive and the inhibition came out at 112%. This compound also showed a pIC50 under setting [1] of 4.83. The pIC50 (CXCR6, run 1, dose range 2) is 4.85. In addition, the pIC50 (CXCR6, run 2, dose range 2) was 4.82.

Regarding `Cc1cc(C)cc(N2C(=O)CC(Sc3nnnn3-c3ccccc3)C2=O)c1` (stereo not given), the result was inactive and the inhibition was 113%. The same compound showed a pIC50 under setting [1] of 4.84. Moreover, under “CXCR6, run 1, dose range 2”, the pIC50 is 4.86. Further, for the setting “CXCR6, run 2, dose range 2”, the pIC50 is 4.82.

For `O=C(C=Cc1ccccn1)c1ccccc1O`, the result was inactive and the inhibition is 108%. Under setting [1], this compound showed a pIC50 of 4.65. The pIC50 (CXCR6, run 1, dose range 2) was 4.86. The pIC50 (CXCR6, run 2, dose range 2) is 4.51.

`CCCC/C=C1/CCC(CN(C)C)C1=O` (stereo not given): the result was inactive and the inhibition turned out to be 110%. Besides, the pIC50 under setting [1] was 4.65. The pIC50 (CXCR6, run 1, dose range 2) was 4.65. Where the note is “CXCR6, run 2, dose range 2”, this compound showed a pIC50 of 4.64.

For `O=[N+]([O-])c1ccc(N/N=C/c2sc(N3CCOCC3)nc2-c2ccccc2)c(S(=O)(=O)Nc2ccc(Cl)cc2)c1`, the outcome was inactive and the inhibition is 99.6%. The pIC50 under setting [1] is 4.26. The pIC50 (CXCR6, run 1, dose range 2) is 4.14. In addition, the pIC50 (CXCR6, run 2, dose range 2) is 4.43.

Turning to `O=C(Nc1ccc(Oc2ccccc2)cc1)c1csc([C@@H]2O[C@H](CO)[C@H](O)[C@H](O)[C@H]2O)n1`, the outcome was inactive and the inhibition came to 57.4%. The pIC50 under setting [1] is 4.40. The same compound showed a pIC50 (CXCR6, run 1, dose range 2) of 4.40. The compound also gave a pIC50 (CXCR6, run 2, dose range 2) of under 4.10.

For `O=C1C=CC(=O)N1CCCCCCCCCCN1C(=O)C=CC1=O`, the outcome was inactive and the inhibition is 111%. The pIC50 under setting [1] is 4.78. The compound further had a pIC50 (CXCR6, run 1, dose range 2) of 4.82. Besides, under “CXCR6, run 2, dose range 2”, the pIC50 was 4.74.

With `CC(=O)OC1CCC2(C)C(CCC3C4CC=C(C(C)=O)C4(C)OC(=O)CC32)C1` (stereo not given), the result was inactive and the inhibition amounted to 96.2%. Under setting [1], this compound gave a pIC50 of 4.62. The same compound gave a pIC50 (CXCR6, run 1, dose range 2) of 4.65. Under “CXCR6, run 2, dose range 2”, this compound gave a pIC50 of 4.59.

As to `COc1cc(/C=C(\C#N)c2nc(-c3cc4ccccc4oc3=O)cs2)ccc1O`, the outcome was inactive and the inhibition is 84.1%. Also, the pIC50 under setting [1] was 4.51. The compound further showed a negative logarithm of the IC50 (pIC50) (CXCR6, run 1, dose range 2) of 4.63. Besides, the pIC50 (CXCR6, run 2, dose range 2) is 4.42.

On to `COC(=O)C1=C(C(=O)OC)C2OC1c1cc3ccccc3cc12`, for which the outcome was inactive and the inhibition turned out to be 112%. The compound further gave a pIC50 under setting [1] of 4.84. Besides, the pIC50 (CXCR6, run 1, dose range 2) was 4.91. In addition, the pIC50 (CXCR6, run 2, dose range 2) is 4.78.

Turning to `COc1ccc(-n2nnnc2S(=O)(=O)CC(=O)N2CCCCC2)cc1`, the result was inactive and the inhibition amounted to 97.5%. Moreover, under setting [1], the pIC50 is 4.72. In addition, the pIC50 (CXCR6, run 1, dose range 2) is 4.72. Where the note is “CXCR6, run 2, dose range 2”, this compound had a pIC50 of 4.73.

`CCOC(=O)C1CCCN(c2c(C(=O)c3ccccc3)cnc3ccc(OC)cc23)C1` (stereo not given): the result was inactive and the inhibition was 99.5%. The pIC50 under setting [1] is 4.84. The pIC50 (CXCR6, run 1, dose range 2) was 4.75. For the same compound, where the note is “CXCR6, run 2, dose range 2”, the pIC50 is 4.96.
